Several values for one entry are separate records, joined by “and”; a condition that tells them apart may be missing. Equal values may be shown once. Read-outs that look alike come from different tables or passages of the source.
Key:
[1] = rat, tissue homogenate
lung slices = details: rat lung slices, 200 nM, 5 h, 37 °C
Method: (§1) In short, lung slices were prepared by performing an in situ perfusion of the lungs of the rats with physiological saline and then filling them with agarose Type VII-A to facilitate slicing. Slices of 500 µm thickness were prepared using the Leica VT1200 microtome slicer (Leica Microsystems, Wetzlar, Germany). […] After a 5 h incubation at 37 °C in an incubated shaker (MaxQ4450 Thermo Fisher Scientific, NinoLab, Stockholm, Sweden) with a rotation speed of 45 rpm, the buffer and lung slices were sampled. To match the matrix of the lung slice samples, 200 μL of aECF was mixed with 200 μL of blank agarose-filled lung homogenate (1:4, w:v). The lung slices were individually removed, dried on filter paper, weighed, and thereafter homogenized in 9 volumes (w:v) of aECF with an ultrasonic processor (VCX-130; Sonics, Chemical Instruments AB, Stockholm, Sweden). All samples were stored at −20 °C pending LC-MS/MS analysis. Assuming that at equilibrium the concentration of the peptide in virtually protein-free buffer is equal to the interstitial fluid concentration in the lung slice, the Vu,lung (mL/g lung) was estimated using Equation (4) as a ratio of the amount of compound in the lung slice (Alung, nanomoles g lung) to the measured final buffer concentration (Cbuffer, micromole/L). […]

[2] = rat
Method: as §1

[3] = rat, plasma, Fraction unbound in plasma, fu,plasma, undiluted rat plasma, 1 µM, equilibrium dialysis 6 h 37 °C
Method: (§4) Peptide binding to plasma proteins, brain tissue homogenate, and lung tissue homogenate as well as to neuronal and astrocyte cell culture homogenates was investigated using equilibrium dialysis [47]. Undiluted plasma and brain from three peptide-naïve rats were used in the experiment. The brain homogenate was prepared by homogenizing 1 part brain with 4 parts of phosphate-buffered saline (PBS, pH 7.4). […] Semi-permeable membranes with a molecular weight cut-off of 12–14 kDa were used and placed in an HTD96b apparatus (HTDialysis, Gales Ferry, CT, USA). The undiluted plasma and respective homogenates were spiked with individual peptide to a concentration of 1 µM and were dialyzed against PBS (pH 7.4). Five technical replicates were prepared per biological replicate. The experiment was run for 6 h at 37 °C in a MaxQ4450 shaker (Thermo Fisher Scientific, NinoLab, Sweden) at 200 rpm. […] Aliquots (80 µL) were taken from the buffer and plasma/homogenate sides. To compensate for any differences in matrix during bioanalysis, the plasma and homogenate samples were mixed with equal volumes of blank buffer, and the buffer samples were mixed with an equal volume of relevant blank plasma/homogenate. Spiked plasma and respective homogenate samples were incubated to control for relative recovery and thermal stability of the peptides in respective matrices.
(§5) The unbound fraction in undiluted plasma was calculated using Equation (5), where Cbuffer is the unbound concentration of peptide in the buffer and Cplasma is the total concentration of peptide in plasma at 6 h. The binding of peptide in various homogenates was assessed in two steps. First, the fraction of unbound peptide in the diluted homogenate, fu,h,D, was calculated using Equation (6), where Chomogenate is the total concentration of peptide in respective homogenate at 6 h. Second, the correction for the dilution was implemented as described in Equation (7), where D is the dilution factor used in the preparation [47]. D was 5 for brain and lung homogenates and on average 35.3 for the cell culture studies, as determined based on the total protein content and the total volume of lysate. (5) fu,plasma=Cbuffer/Cplasma (6) fu,h,D=Cbuffer/Chomogenate (7) fu,tissue/cell=1/D/((1/fu,h,D )−1)+1/D

[4] = system: astrocytes differentiated from human neural stem cells; details: 500 nM, 5 h, 37 °C
Method: (§2) Human neural stem cells (hNSCs) derived from human embryonic stem cells (hESCs) were differentiated to neurons or astrocytes. […] Cells were allowed to differentiate into desired lineage for three weeks before the addition of peptides. The peptides were individually added to 2 mL Neurobasal medium to a final concentration of 500 nM and incubated at 37 °C for 5 h. The medium was removed, and the cells were subsequently lysed using 300 µL of Pierce™ lysis buffer (ThermoFisher Scientific Cat. No. 87787) per well. Samples were kept at −20 °C pending analysis. The uptake of peptides was determined using the total cellular-to-unbound medium concentrations ratio, Kp,u,cell (mL/g total protein), according to Equation (11). (11) Kp,u,cell=Ccell/Cu,medium=Acell/Vcell/Cu,medium where Acell (nanomoles per g total protein) is the total amount of peptide in the cell lysate normalized by the total protein content and estimated volume of the cells. Total protein concentration (mg/mL) in the cell lysate was determined using a NanoDrop 2000C (ThermoFisher, Waltham, MA, USA) by measuring the absorbance at 280 nm. Vcell was estimated using the value of 6.5 µL/mg protein by analogy of HEK293 cells. […] The parameter Kp,u,cell (mL per g of total protein at 5 h) is a partition coefficient between the buffer and the cell culture, where the fraction in the buffer has no binding, but the measured concentration in the cells is a composite of both uptake into the cells and binding to both the cell surface and intra-cellular components. This parameter is thereby similar to Vu,brain as it also gives a description of both binding and uptake processes.
(§3) For estimation of the extent of transport across the cellular membrane, the unbound intracellular-to-extracellular ratio, Kp,uu,cell was calculated as described below:(12) Kp,uu,cell=Kp,u,cell×fu,cell

[5] = system: neurons differentiated from human neural stem cells; details: for Total neuronal cell-to-unbound medium concentration ratio, Kp,u,cell,N: neurons, 500 nM, 5 h, 37 °C
Method: as §2, §3

[6] = cell lysates vs brain homogenate, on average
[7] = design: method as in PubChem; details: estimates from PubChem; ref PubChem; cited from earlier work
in vitro = details: rat, undiluted plasma, pH 7.4, Fraction unbound in plasma, fu,plasma, equilibrium dialysis 6 h 37 °C
Method: as §4, §5

SMILES | fraction unbound [1] | Vu,lung (lung slices) [mL/g lung] | Kp uu [2] | fraction unbound [3] | Total astrocyte cell-to-unbound medium concentration ratio, Kp,u,cell,A [4] | Total astrocyte cell-to-unbound medium concentration ratio, Kp,u,cell,A ([4]; listed as kalata B1) [mL/g total protein] | Relative reduction of Kp,uu,cell in cell culture versus tissue slice experiments ([5]; neuron and astrocyte cultures vs brain slices) | Difference between Kp,u,cell (neurons, astrocytes) and Vu,brain (brain slice assay) ([5]; neurons and astrocytes vs brain slices) | Total neuronal cell-to-unbound medium concentration ratio, Kp,u,cell,N [5] [mL/g total protein] | fu,cell fold lower than fu,brain [6] [fold] | Predicted net charge [7] | fraction unbound at 6 h, 1 µM (in vitro) | Kp,u,cell fold lower than for kalata B1 ([5]; neurons and astrocytes)
CC(C)C[C@@H]1NC(=O)CNC(=O)[C@H](CC(N)=O)NC(=O)[C@H](CCCNC(=N)N)NC(=O)[C@H]([C@@H](C)O)NC(=O)[C@@H]2CSSC[C@@H]3NC(=O)[C@H]([C@@H](C)O)NC(=O)CNC(=O)CNC(=O)[C@H](C(C)C)NC(=O)[C@@H]4CSSC[C@H](NC(=O)[C@H]([C@@H](C)O)NC(=O)[C@H](CSSC[C@H](NC(=O)[C@H](C(C)C)NC(=O)[C@@H]5CCCN5C1=O)C(=O)NCC(=O)N[C@@H](CCC(=O)O)C(=O)N[C@@H]([C@@H](C)O)C(=O)N4)NC(=O)CNC(=O)[C@@H]1CCCN1C(=O)[C@H]([C@@H](C)O)NC(=O)[C@H](CC(N)=O)NC3=O)C(=O)N[C@@H](CO)C(=O)N[C@@H](Cc1c[nH]c3ccccc13)C(=O)N1CCC[C@H]1C(=O)N[C@@H](C(C)C)C(=O)N2 [Kalata B1] | 0.0377 ± 0.0079 | 1.23 | 0.195 ± 0.107 | 0.3 | 94.73 ± 3.08 mL/g total protein | 94.7 | ca. 3 fold | less than 2 fold | 135.35 ± 21.2 | – | – | – | –
CC[C@H](C)[C@@H]1NC(=O)[C@@H]2CCCN2C(=O)[C@@H]2CCCN2C(=O)[C@H]([C@@H](C)CC)NC(=O)[C@H](CO)NC(=O)[C@H](CCCCN)NC(=O)[C@H]([C@@H](C)O)NC(=O)[C@@H]2CSSC[C@H](NC1=O)C(=O)N[C@@H](Cc1ccccc1)C(=O)N1CCC[C@H]1C(=O)N[C@@H](CC(=O)O)C(=O)NCC(=O)N[C@@H](CCCNC(=N)N)C(=O)N2 [SFTI-1, sunflower trypsin inhibitor-1] | – | – | – | – | 19.0 mL/g total protein and 19.02 ± 4.34 mL/g total protein | – | – | – | 31.11 ± 12.46 | 3 | 0 | 0.94 | up to 5 fold
